Consider 1 compound from patent US4894225A (priority 1987, dated 1990).

For this data set, the system named is MX-1 tumors (human breast adenocarcinoma-derived tumor cell line). Particulars: in vivo.

On to `O=P1(N(CCCl)CCCl)NCCCO1` (stereo not shown) [cytoxan], for which the “% TGI (tumor growth inhibition vs PBS)” value came to 90.5%, the deaths is 0/5, the “ΔBW (change in body weight)” value is given as 1.11 and the “ΔTW (change in tumor weight)” value stood at 2.4.
